Test in all cases: growth of human tumour cells (NCI), 48 h
The subject of test [1] is CCRF-CEM leukemia.
In test [2] the test system is HT29 colon.
In test [3] the test system is MALME-3M melanoma.
In test [4] the test system is NCI-H522 lung.
For test [5], the system named is OVCAR-5 ovarian.
Test [6] relates to RPMI-8226 leukemia.
The subject of test [7] is RXF 393 renal.
In test [8] the test system is SF-539 CNS.
In test [9] the test system is SW-620 colon.
Test [10] has as its system SF-268 CNS.
Test [11] has as its system MDA-MB-435.

Our source for the TGI and GI50 values is PubChem BioAssay (NCI).

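A five-concentration, 48-hour dose response in 96-well plates underlies each endpoint, interpolated linearly between surrounding concentrations. The concentration for 50% growth inhibition is given as GI50. The concentration for full growth arrest is given as TGI.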

In the case of `[N-]=[N+]=NC(c1cn(C2CC(O)C(CO)O2)c(=O)[nH]c1=O)C(Br)I` (stereo unspecified), the TGI in [1], in test [2], in test [3], in test [4], in test [5] and in test [6] was above 100 µM throughout. In addition, the TGI in test [7], in test [8] and in test [9] was above 100 µM in each case.

With `COc1ccccc1NC(=O)CSC(N)=O`, the TGI in [1], in test [2], in test [3], in test [4], in test [5] and in [6] was above 100 µM throughout. The TGI was above 100 µM in test [10], 70.4 µM in test [8] and above 100 µM in test [9].

Take `Cc1sc2nc3n(sc4nc5sc(C)c(C)c5c(=O)n43)c(=O)c2c1C`: the TGI in test [1] was 45.1 µM; in [2], above 100 µM; in [11], above 100 µM; in test [4], 32 µM; in test [5] it was above 100 µM; in [6], above 100 µM. Besides, the TGI in [10], in [8] and in [9] was above 100 µM throughout.

As for `O=C(O)Cn1ncn(NC(=O)Cc2ccccc2)c1=S`, the TGI in test [1], in test [2], in test [3], in [11], in test [4] and in test [5] was above 10 µM each time. The TGI in [6], in test [10], in test [8] and in test [9] was above 10 µM throughout.

Consider `C=C1C(=O)O[C@H]2[C@H]1CC/C(COC(=O)/C=C/C(=O)OC/C1=C/CC[C@@]3(C)O[C@H]3[C@H]3OC(=O)C(=C)[C@@H]3CC1)=C\CC[C@@]1(C)O[C@@H]21`, for which the GI50 in [4] was 0.171 µM; in test [6], 0.868 µM; in test [7], 0.297 µM; in test [10] it was 3.19 µM; in test [8], 2.5 µM; in test [9] it was 0.338 µM. The TGI in [4] is 0.374 µM; in test [6], 4 µM; in test [7], 0.713 µM; in [10], above 100 µM; in [8] it was 7.86 µM; in [9] it was 1.11 µM.

As to `Cc1c(Cl)c(=O)oc2cc(OCC(O)COC(C)C)ccc12` (stereo unspecified), the TGI is above 100 µM in [1]; above 100 µM in test [2]; 35.8 µM in test [3]; above 100 µM in test [11]; above 100 µM in test [4]; above 100 µM in test [5]. The TGI in test [6], in test [10] and in [9] was above 100 µM throughout.

As for `C=C1CC(Cn2cc(Br)c(=O)[nH]c2=O)(c2ccc(Br)cc2)OC1=O` (stereo unspecified), the TGI in test [1] is 5.26 µM; in test [2], 7.89 µM; in [3], 4.7 µM; in [11] it was 10.4 µM; in test [4] it was 3.19 µM; in [5] it was 22.5 µM. For the same compound, the TGI in [6] stood at 1.61 µM; in [10], 41.3 µM; in [8], 23.7 µM; in [9], 3.79 µM.

`CCOC(=O)CC(=O)Sc1ccccc1`: the TGI was 51.3 µM in [1]; 48.7 µM in test [2]; above 100 µM in test [3]; 24.3 µM in test [4]; above 100 µM in test [5]; 51 µM in test [6]. Moreover, the TGI in test [7] worked out at 25.9 µM; in [10], 23.1 µM; in test [8], 28.6 µM; in [9] it was 39.4 µM.

Consider `CCCCNC(=S)Nc1nc(C(=O)NNC(=S)NCc2ccccc2)cs1`, for which the TGI in [2], in test [3], in test [11], in test [4], in [5] and in test [6] was above 100 µM each time. The TGI in [10] is above 100 µM; in test [8], 68.6 µM; in [9] it was above 100 µM.

With `c1ccc2c(c1)ccc1nc(-c3ccc4c(c3)OCO4)c3c(c12)CCC3`, the TGI in [1], in test [2], in test [3], in test [11], in test [5] and in [6] was above 100 µM in each case. In addition, the TGI in test [10], in test [8] and in [9] was above 100 µM each time.

Take `O=C1CCc2cc3c(cc21)C(C(=O)O)CC3` (stereo unspecified): the TGI in test [1], in [2], in [3], in test [4], in test [5] and in test [6] was above 100 µM in each case. Also, the TGI in test [7], in test [10], in test [8] and in [9] was above 100 µM each time.

As for `Cc1cccc(=O)c([O-])c1.Cc1cccc(=O)c([O-])c1.Cc1cccc(=O)c([O-])c1.Cc1cccc(=O)c([O-])c1.[Th+4]`, the GI50 in [1] is 2.52 µM. Moreover, the TGI was 49.7 µM in test [1]; above 49.4 µM in test [2]; above 100 µM in test [3]; above 100 µM in test [5]; above 100 µM in test [6]; above 100 µM in [7]. Further, the TGI in test [10] was above 100 µM; in test [8], 54.3 µM; in [9], above 100 µM.

With `O=C(NCCNCCO)N/N=C/c1ccccc1`, the TGI in test [1], in [2], in [3], in test [4], in test [7] and in test [10] was above 100 µM throughout. Also, the TGI in test [8] and in test [9] was above 100 µM each time.

Consider `CC(=O)Nc1ccc(C(=O)N2N=C(C)/C(=C/c3ccccc3O)C2=O)cc1`, for which the TGI in test [1], in [2], in test [3], in [4], in test [5] and in test [6] was above 100 µM throughout. Also, the TGI in [10], in [8] and in [9] was above 100 µM in each case.

For `CCCCCCCCCCC[N+]1(Cc2ccccc2)CC2CCN(Cc3ccccc3)CC2C1` (stereo unspecified), the TGI in [1] is 1.14 µM; in test [2], 1.71 µM; in test [3], 1.26 µM; in [4] it was 1.29 µM; in test [5], 2.9 µM; in test [6], 0.378 µM. In addition, the TGI in test [7] amounted to 1.95 µM; in test [10] it was 2.13 µM; in test [8] it was 2.45 µM; in test [9], 1.58 µM.

Regarding `Oc1ccc(O)c(Sc2nnc(CCCCCCCCc3nnc(Sc4cc(O)ccc4O)o3)o2)c1`, the TGI in test [2] is above 100 µM; in test [3], above 100 µM; in [11] it was 35.8 µM; in test [4], 55 µM; in test [5] it was above 100 µM; in test [6], above 100 µM. Moreover, the TGI in test [10] and in test [9] was above 100 µM in each case.

On to `CC(C)C(=O)/C=C/c1ccccc1`, for which the TGI in [1] is 67.5 µM; in [2] it was above 100 µM; in [4], above 100 µM; in test [5], above 100 µM; in test [6], above 100 µM; in test [7], above 100 µM. The TGI in test [10], in test [8] and in test [9] was above 100 µM in each case.

For `O=C1C(Cl)C(c2cccc(O)c2)N1n1cnc2ccccc2c1=O` (stereo unspecified), the TGI in test [2], in [3], in [4], in [5], in test [6] and in test [7] was above 100 µM in each case. The TGI in test [10] and in test [9] was above 100 µM throughout.

Consider `O=C(O)c1cc(Nc2c(O)c3c(c(O)c2Cl)C(=O)C=CC3=O)ccc1O`, for which the TGI in [1], in [2], in [3], in test [11], in [5] and in test [10] was above 10 µM in each case. The TGI in test [8] and in test [9] was above 10 µM each time.

With `O=c1n(C2CCCCC2)c(=C(Cl)Cl)c(=C(Cl)Cl)n1C1CCCCC1`, the TGI in test [1], in test [2], in test [3], in [4], in [5] and in [6] was above 100 µM each time. In addition, the TGI in test [7], in test [10], in [8] and in test [9] was above 100 µM in each case.

On to `COc1ccc(C[C@H]2COC(=O)[C@@H]2Cc2ccccc2)cc1OC`, for which the TGI in test [1], in test [2], in test [3], in test [5], in test [6] and in test [9] was above 100 µM each time.

`CC(C)(C)C(=O)O[C@H]1C=C[C@@H](O)[C@@H]2[C@H]1[C@@H]1C=C[C@H]2C1`: the TGI in test [1] was above 100 µM; in [4], 79.8 µM; in [5], 6.42 µM; in test [6], 83 µM; in [10] it was above 100 µM; in test [8], 92.9 µM. In addition, the TGI in test [9] is above 100 µM.

With `CC(C)NCCNC(=O)c1ccccc1Nc1c(Cl)cccc1Cl`, the TGI in [1] turned out to be 27.1 µM; in [2], 17.5 µM; in test [5], 20.4 µM; in test [6] it was 16.2 µM; in test [7], 17 µM; in [10] it was 34.1 µM. The TGI in [8] was found to be 30.2 µM; in test [9] it was 30.4 µM.

In the case of `COc1ccc(C2C3=CONC3CC3CCCCC32)cc1` (stereo unspecified), the TGI in [1], in test [2], in test [3], in test [11], in test [4] and in test [5] was above 100 µM in each case. Further, the TGI in test [6], in test [10] and in test [9] was above 100 µM in each case.

Consider `COc1ccc2c3c([nH]c2c1)-c1nc2ccccc2c(=O)n1CC3`, for which the GI50 in test [1] was above 25 µM. The TGI in test [1], in [11], in test [4], in [5], in test [6] and in [10] was above 25 µM in each case. In addition, the TGI in [8] and in test [9] was above 25 µM each time.

As to `CC(=O)CCCCCCCCCCCC[C@@H]1CC[C@H](C)[C@H](O)N1`, the TGI in test [1], in test [2], in [3], in [4], in test [5] and in test [6] was above 100 µM each time. Also, the TGI in test [7], in test [10] and in test [9] was above 100 µM throughout.

Consider `Cn1c(O)c(/C=N/c2ncccn2)c(=O)[nH]c1=O`, for which the TGI in test [2], in test [3], in test [11], in test [4], in test [5] and in test [10] was above 100 µM each time. The TGI in test [8] and in test [9] was above 100 µM in each case.

As to `Cc1ccc(C(=O)NN=C(/N=N/c2cccc(C)c2)c2ccc(N(C)C)cc2)cc1`, the TGI in [1], in test [2], in test [11], in test [4], in test [5] and in test [6] was above 100 µM in each case. Further, the TGI in [10], in test [8] and in test [9] was above 100 µM each time.

As for `N#CC(NNC(=O)c1ccccc1O)c1ccc(O)cc1` (stereo unspecified), the TGI in test [1], in [2], in test [3], in test [4], in [5] and in [6] was above 100 µM each time. Also, the TGI is 12.2 µM in test [7], above 100 µM in [10], above 100 µM in test [8] and above 100 µM in test [9].
